In patent US20140323457A1, “BETA-O/S/N FATTY ACID BASED COMPOUNDS AS ANTIBACTERIAL AND ANTIPROTOZOAL AGENTS” (LUDWIG-MAXIMILIANS-UNIVERSITÄT MÜNCHEN, priority 2011, published 2014):
Values after ≈ are worked out from the molar mass of the structure shown. Where two headings read alike, the source gives them in different places.

What was measured:
[1] = test system: S. aureus strain NCTC 8325; test: minimal inhibiting concentration (MIC) in liquid bacterial culture; format: cell-based; settings: overnight 37° C.
Method: (§1) 1 ml of an appropriate bacterial broth for the standard laboratory S. aureus strain NCTC 8325 were inoculated with 1*10^6 cfu. The cultures were kept overnight at 37° C. with gentle shaking 300 rpm in the presence of compounds AVU1Acid, AVU1AAc, AVU1AA or VK273 according to the present invention at different concentrations or dimethyl sulfoxide (DMSO) as control. Different beta-lactone virulence inhibitors were used as reference compounds. Following overnight incubation the optical density was measured in order to determine the minimal inhibiting concentration (MIC), which is defined as the lowest concentration of an antimicrobial that will inhibit the visible growth of a microorganism after overnight incubation. A 100 μl fraction of the supernatant of the grown bacterial cultures was subsequently analysed for the content of secreted bacterial hemolysins by addition of sheep red blood cells (10% v/v in PBS) and the measurement of the optical density at 410 nm after 30 min incubation at 37° C.

[2] = test system: S. aureus strain NCTC 8325; test: liquid culture-based hemolysis assay (secreted hemolysins, sheep red blood cells); format: cell-based
Method: The inhibition of hemolysin production has thus been further analysed in liquid bacterial cultures in order to evaluate their potential effects on bacterial growth simultaneously. Besides AVU1Acid, AVU1AAc, AVU1AA and VK273 the following further compounds were tested in liquid bacterial cultures:
as §1
The following results were obtained in further liquid culture-based hemolysis assays. Since the assays were performed at different times with different charges of sheep red blood cells AVU1 has been tested as a reference substance in each assay. The resulting EC50 values determined for the tested compounds have to be assessed with respect to the EC50 value determined for AVU1.

S. aureus NCTC 8325 = test: agar plate-based hemolysis assay on sheep blood agar; format: cell-based; settings: FIG. 1; over night at 37° C.
Excerpt: Several compounds of the invention as well as reference compounds have been tested against S. aureus NCTC 8325 on sheep blood agar. Hemolysins are key virulence factors of S. aureus that contribute to the pathogenicity of these bacteria. The production of hemolysins can be easily monitored by lysis of sheep blood and generation of a clear zone around the bacterial colonies on the agar plate. Hemolysins are co-regulated with the majority of important virulence factors and have been qualified in previous studies as a reliable measure of agr quorum sensing regulated virulence (T. Böttcher, S. A. Sieber, J Am Chem Soc 2008, 130, 14400).
Agar plate-based hemolysis was tested on 5% sheep blood agar plates (Heipha Diagnostika, Eppelheim, Germany). Sterile circles of Whatman® cards (No. 1, Schleicher & Schuell) with 5.5 mm diameter were placed on the agar plates and inoculated with 2.5 μL of the corresponding lactone/DMSO and 2.5 μL stationary phase culture of S. aureus NCTC 8325 diluted to OD600=0.13. The plates were incubated over night at 37° C. and the diameters of the zones around the bacterial colonies were precisely measured using a vernier caliper. Doses of the compounds required to produce the half maximum effect (ED50) were calculated from curve fittings by Microcal™ Origin 6.0.

[3] = target: T1, CIpP protease from S. aureus NCTC8325 (SaCIpP) (Staphylococcus aureus, UniProt Q2G036); test: in vitro inhibition of recombinant S. aureus CIpP with SLY-AMC substrate; format: biochemical; settings: inhibitor 2 mM (1000×), 30 min RT; SLY-AMC 200 μM; FIG. 3
T1 construct: made in house; host or cells: E. coli
T1 sequence (Q2G036 1-195): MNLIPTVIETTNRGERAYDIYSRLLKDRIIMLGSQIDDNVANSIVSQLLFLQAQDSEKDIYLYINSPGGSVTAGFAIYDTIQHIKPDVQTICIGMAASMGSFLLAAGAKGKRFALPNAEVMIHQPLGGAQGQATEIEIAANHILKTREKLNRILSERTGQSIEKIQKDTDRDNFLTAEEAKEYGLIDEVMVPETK
Method: The CIpP protease from S. aureus NCTC8325 (SaCIpP) was recombinantly overexpressed in E. coli and purified in order to investigate enzyme inhibition using SLY-AMC (N-succinyl-Leu-Tyr-7-amido-4-methylcoumarin) as fluorogenic model substrate.
Precisely, 9 μl of SaCIpP in buffered solution (final concentration 0.05 mg/ml, 2 μM; buffer: 100 mM NaCl, 20 mM Tris, pH 7.0) were incubated in the presence of 1 μl of various inhibitors (final concentration 2 mM=1000×) for 30 min at room temperature (RT). Subsequently, SLY-AMC was added to a final concentration of 200 μM and the increase in fluorescence due to enzymatic substrate proteolysis was measured using a TECAN GENios Pro™ plate reader at 380/440 nm (excitation/emission) at time intervals of 60 s over 40 min at 37° C. The enzymatic activity was determined as the slope of fluorescence (2=440 nm) over time. As positive controls, the in vivo active beta-lactone compound AVU1 (“U1”; WO 2009/106211) and the in vitro potent CIpP beta-lactone inhibitor D3 (WO 2009/106211) were employed.

[4] = Assay 4, hemolysin production, assess relative to AVU1
[5] = Staphylococcus aureus, NCTC8325, Assay 3, read-out: MIC
[6] = Staphylococcus aureus, NCTC8325, Erythrocyte, Assay 3, hemolysin production, assess relative to AVU1
[7] = Staphylococcus aureus, NCTC8325, Assay 1, read-out: MIC
[8] = Staphylococcus aureus, NCTC8325, Erythrocyte, Assay 1, hemolysin production
[9] = Assay 2, hemolysin production, assess relative to AVU1

C#CCCCCCCC[C@H](C(=O)O)[C@H](O)CCc1ccc(C2(C(F)(F)F)N=N2)cc1 (relative stereo) [JS-11_1, (3R*,2S*)-3-Hydroxy-2-(8-noninyl)-5-(4-(3-trifluoromethyl-3H-diazirinyl)-phenyl)-pentanoic acid]
MIC ([1]; Assay 4): 10 to 50 µM | EC50 [2, 4]: 3.6 µM

C#CCCCCCCC[C@@H](C(=O)O)[C@H](O)CCc1ccc(C2(C(F)(F)F)N=N2)cc1 (relative stereo) [JS-11_2, (3R*,2R*)-3-Hydroxy-2-(8-noninyl)-5-(4-(3-trifluoromethyl-3H-diazirinyl)-phenyl)-pentanoic acid]
MIC ([1]; Assay 4): 10 to 50 µM | EC50 [2, 4]: 2.2 µM

C#CCCCCCCC[C@H](C(=O)OC)[C@H](O)CCc1ccc(C2(C(F)(F)F)N=N2)cc1 (relative stereo) [JS-14_1, Methyl (3R*,2S*)-3-Hydroxy-2-(8-noninyl)-5-(4-(3-trifluoromethyl-3H-diazirinyl)-phenyl)-pentanoate]
MIC ([1]; Assay 4, read-out: MIC): >1000 µM | EC50 [2, 4]: 166 µM

C#CCCCCCCC[C@H](C(N)=O)[C@H](O)CCc1ccc(C2(C(F)(F)F)N=N2)cc1 (relative stereo) [JS-14_1Amid, (3R*,2S*)-3-Hydroxy-2-(8-noninyl)-5-(4-(3-trifluoromethyl-3H-diazirinyl)-phenyl)-pentanamide]
MIC ([1]; Assay 4, read-out: MIC): >1000 µM | EC50 [2, 4]: 2.3 µM

C#CCCCCCCC[C@@H](C(=O)OC)[C@H](O)CCc1ccc(C2(C(F)(F)F)N=N2)cc1 (relative stereo) [JS-14_2, Methyl (3R*,2R*)-3-Hydroxy-2-(8-noninyl)-5-(4-(3-trifluoromethyl-3H-diazirinyl)-phenyl)-pentanoate]
MIC ([1]; Assay 4, read-out: MIC): >1000 µM | EC50 [2, 4]: 64 µM

C#CCCCCCCC[C@@H](C(N)=O)[C@H](O)CCc1ccc(C2(C(F)(F)F)N=N2)cc1 (relative stereo) [JS-14_2Amid, (3R*,2R*)-3-Hydroxy-2-(8-noninyl)-5-(4-(3-trifluoromethyl-3H-diazirinyl)-phenyl)-pentanamide]
MIC ([1]; Assay 4, read-out: MIC): >1000 µM | EC50 [2, 4]: 2.8 µM

C=CCCCCCCC[C@@H](C(N)=O)[C@H](O)CCCc1ccccc1 (relative stereo) [VK375, (2R*,3R*)-3-Hydroxy-2-(non-8-enyl)-6-phenylhexanamide]
MIC ([1]; Assay 3, read-out: MIC): >1000 µM | MIC [1, 5]: > 1000 µM | EC50 [2, 6]: 1 to 5 µM

NC(=O)[C@H](CCc1ccccc1)[C@H](O)CCc1ccccc1 (relative stereo) [VK403-1, (2R*,3R*)-3-Hydroxy-2-(2-phenylethyl)-5-phenylpentanamide]
MIC ([1]; Assay 3, read-out: MIC): >1000 µM | MIC [1, 5]: > 1000 µM | EC50 [2, 6]: 50 to 100 µM

CCCCCCCCC[C@@H](C(N)=O)[C@H](O)CCc1ccccc1 (relative stereo) [VK453-1, (2R*,3R*)-3-Hydroxy-2-nonyl-5-phenylpentanamide]
MIC ([1]; Assay 2, read-out: MIC): >1000 µM | MIC ([1]; Staphylococcus aureus, NCTC8325, Assay 2, read-out: MIC): > 1000 µM | EC50 ([2]; Staphylococcus aureus, NCTC8325, Erythrocyte, Assay 2, hemolysin production, assess relative to AVU1): 1 to 5 µM

C=CCCCCCCC[C@@H](C(N)=O)[C@H](O)Cc1ccccc1 (relative stereo) [VK508-3, (2R*,3R*)-3-Hydroxy-2-(non-8-enyl)-4-phenylbutanamide]
MIC ([1]; Assay 3, read-out: MIC): >1000 µM | MIC [1, 5]: > 1000 µM | EC50 [2, 6]: 10 to 50 µM

C=CCCCCCCCC(C(=O)O)C(CCc1ccccc1)OC(C)=O (stereo not shown) [AVU1AAc, 3-acetoxy-2-(non-8-enyl)-5-phenylpentanoic acid]
MIC [1, 7]: 50 to 100 µM (≈ 18 to 36 µg/mL) | EC50 [2, 8]: 2.43 µM | inhibition of hemolysis (virulence inhibition) on sheep blood agar (S. aureus NCTC 8325): high | inhibition of SaCIpP [3]: inhibit SaCIpP at an at least comparable level as the in vivo active beta-lactone reference compound AVU1

C=CCCCCCCCC(C(=O)SCC(NC(C)=O)C(=O)OC)C(CCc1ccccc1)OC(C)=O (stereo not shown) [AVU1AAcTE, reference compound]
inhibition of hemolysis (virulence inhibition) on sheep blood agar (S. aureus NCTC 8325): only low efficiency and incomplete inhibition of hemolysis

C=CCCCCCCCC(C(=O)OC)C(O)CCc1ccccc1 (stereo not shown) [AVU1AME]
inhibition of hemolysis (virulence inhibition) on sheep blood agar (S. aureus NCTC 8325): moderate | inhibition of SaCIpP [3]: inhibit SaCIpP at an at least comparable level as the in vivo active beta-lactone reference compound AVU1

C=CCCCCCCCC(C(=O)O)C(O)CCc1ccccc1 (stereo not shown) [AVU1Acid, 3-hydroxy-2-(non-8-enyl)-5-phenylpentanoic acid]
MIC [1, 7]: 50 to 100 µM (≈ 15.9 to 31.8 µg/mL) | EC50 [2, 8]: 1.18 µM | inhibition of hemolysis (virulence inhibition) on sheep blood agar (S. aureus NCTC 8325): potent virulence inhibitors

C=CCCCCCCCC1OC(=O)C1CCc1ccccc1 (stereo not shown) [AVU4, reference compound]
MIC [1, 7]: > 1000 µM | EC50 [2, 8]: 435 µM

C=CCCCCCCC[C@H]1C(=O)O[C@@H]1CCc1cc(F)cc(F)c1 [AVU5, reference compound]
MIC [1, 7]: > 1000 µM | EC50 [2, 8]: 16.1 µM

C=CCCCCCCC[C@H]1C(=O)O[C@@H]1Cc1ccccc1 [AVU6, reference compound]
MIC [1, 7]: > 1000 µM | EC50 [2, 8]: 440 µM

C=CCCCCCCC[C@H]1C(=O)O[C@@H]1CCCc1ccccc1 [AVU7, reference compound]
MIC [1, 7]: > 1000 µM | EC50 [2, 8]: 22 µM

C#CCCCCCCCC(C(=O)O)C(O)CCc1ccc(C(=O)c2ccccc2)cc1 (stereo not shown) [JS-64, 5-(4-Benzoylphenyl)-3-hydroxy-2-(8-noninyl)-pentanoic acid]
MIC ([1]; Assay 2, read-out: MIC): >1000 µM | EC50 [2, 9]: 1 to 5 µM

C#CCCCCCCCC(C(N)=O)C(O)CCc1ccc(C(=O)c2ccccc2)cc1 (stereo not shown) [JS-65, 5-(4-Benzoylphenyl)-3-hydroxy-2-(8-noninyl)-pentanamide]
MIC ([1]; Assay 2, read-out: MIC): >1000 µM | EC50 [2, 9]: 1 to 5 µM
